Measured values: patent US20260028364A1, “CATIONIC CHROMENONES AND THEIR USE IN ONCOLOGY” (FLORATEK PHARMA S.A., priority 2022, published 2026)
pIC50: −log10 of the molar value.

Assays:
[1] = test system: MCF-7; test: CellTiter-Glo cell viability, MCF-7; assay type: cell-based; details: MCF-7 cells, 72 h with compound
Protocol: (§1) Antitumor activity against a panel of cancer cell lines Antitumor activity of the compounds was assessed by using the CellTiter-Glow® Luminescent Cell Viability assay (Promega #G7572) according to the manufacturer's instructions. The compounds were tested at 5 or 6 concentrations in 1:2 dilution increments (highest concentration 10 µM) in triplicate well conditions.
(§2) Tumor cells were grown at 37° C. in a humidified atmosphere with 5% CO2 in RPMI 1640 or DMEM medium, supplemented with 10% (v/v) fetal calf serum and 50 μg/ml gentamicin for up to 20 passages, and were passaged once or twice weekly. Cells were harvested using TrypLE or PBS buffer containing 1 mM EDTA, and the percentage of viable cells is determined using a cell counter.
(§3) Cells were harvested from exponential phase cultures, counted and plated in 96 well flat-bottom microtiter plates at a cell density depending on the cell line's growth rate (4,000-20,000 cells/well depending on the cell line's growth rate) in RPMI 1640 or DMEM medium supplemented with 10% (v/v) fetal calf serum and 50 μg/ml gentamicin (140 μl/well). Cultures were incubated at 37° C. and 5% CO2 in a humidified atmosphere. After 24 h, 10 μl of test compounds or control medium are added, and left on the cells for another 72 h. Compounds were serially diluted in DMSO, transferred in cell culture medium, and added to the assay plates. The DMSO concentration was kept constant at <0.2% v/v across the assay plate. Viability of cells was quantified by the CellTiter-Glow® Luminescent Cell Viability assay (Promega #G7572). Luminescence was measured with the microplate luminometer (En Vision Perkin Elmer).
(§4) Sigmoidal concentration-response curves were fitted to the data points (test-versus-control, T/C values) obtained for each tumor model using Graph Pad prism 5.02 software. IC50 values are reported as absolute IC50 values, being the concentration of test compound at the intersection of the concentration-response curves with T/C=50%.

[2] = test system: NCI-H1299; test: CellTiter-Glo cell viability, NCI-H1299; assay type: cell-based; details: H1299 cells, 72 h with compound
Protocol: as §1, §2, §3, §4

[3] = test system: HCC-15; test: CellTiter-Glo cell viability, HCC-15; assay type: cell-based; details: HCC-15 cells, 72 h with compound
Protocol: as §1, §2, §3, §4

[4] = test system: MIA-PaCa-2; test: CellTiter-Glo cell viability, MIA-PaCa-2; assay type: cell-based; details: MIA-PaCa-2 cells, 72 h with compound
Protocol: as §1, §2, §3, §4

[5] = test system: A-673; test: CellTiter-Glo cell viability, A-673; assay type: cell-based; details: A-673 cells, 72 h with compound
Protocol: as §1, §2, §3, §4

[6] = test system: SK-Mel-5; test: CellTiter-Glo cell viability, SK-Mel-5; assay type: cell-based; details: SK-Mel-5 cells, 72 h with compound
Protocol: as §1, §2, §3, §4

[7] = test system: U87MG; test: CellTiter-Glo cell viability, U87MG; assay type: cell-based; details: U87MG cells, 72 h with compound
Protocol: as §1, §2, §3, §4

[8] = test system: A375; test: CellTiter-Glo cell viability, A375; assay type: cell-based; details: A375 cells, 72 h with compound
Protocol: as §1, §2, §3, §4

[9] = test system: SK-N-SH; test: CellTiter-Glo cell viability, SK-N-SH; assay type: cell-based; details: SK-N-SH cells, 72 h with compound
Protocol: as §1, §2, §3, §4

[10] = test system: H69; test: CellTiter-Glo cell viability, H69; assay type: cell-based; details: H69 cells, 72 h with compound
Protocol: as §1, §2, §3, §4

[11] = test system: BxPC-3; test: CellTiter-Glo cell viability, BxPC-3; assay type: cell-based; details: BxPC-3 cells, 72 h with compound
Protocol: as §1, §2, §3, §4

[12] = test system: 22Rv1; test: CellTiter-Glo cell viability, 22Rv1; assay type: cell-based; details: 22Rv1 cells, 72 h with compound
Protocol: as §1, §2, §3, §4

[13] = test system: A2058; test: CellTiter-Glo cell viability, A2058; assay type: cell-based; details: A2058 cells, 72 h with compound
Protocol: as §1, §2, §3, §4

[14] = test system: HepG2; test: CellTiter-Glo cell viability, HepG2; assay type: cell-based; details: HepG2 cells, 72 h with compound
Protocol: as §1, §2, §3, §4

[15] = test system: A2058 melanoma tumor cells; test: In vivo tumour inhibition, A2058 melanoma xenograft; parameters: species or system Balb-c/nude mouse; details: for T/C / TGI: Example 5, 12 mg/kg, day 20 after treatment start; for activity in inhibiting A2058 melanoma cell line in vivo: nude mouse xenograft model of melanoma
Protocol: The A2058 tumor cells were maintained in vitro in DMEM medium supplemented with 10% fetal bovine serum and 1% Anti-Anti at 37° C. in an atmosphere of 5% CO2 in air. The tumor cells were routinely subcultured twice weekly.
Each Balb-c/nude mouse was inoculated subcutaneously at the right flank with A2058 melanoma tumor cells (5×10^6+Matrigel) in 0.2 ml of PBS for tumor development. 10 animals per group were randomized when the average tumor volume reached 74 mm^3. Test compounds were prepared as DMSO stocks and diluted in the injection vehicle before administration. The treatment was administered every other day (QOD) as a peritumoral injection. Vehicle composition was 4% DMSO, 5% ethanol, 20% PEG200, 71% saline. Dosing volume for all groups: 5 mL/kg.
Tumor volume was measured twice weekly in two dimensions using a caliper, and the volume was expressed in mm^3 using the formula: V=0.5a×b^2 where a and b are the long and short diameters of the tumor, respectively. The tumor size was then used for calculations of T/C value: The T/C value (in percent) is an indication of antitumor effectiveness; T and Care the mean volumes of the treated and control groups, respectively, on a given day.
One-way ANOVA was performed to compare tumor volume among treated groups and vehicle group, all data were analyzed using GraphPad Prism 5.0. p<0.05 was considered to be statistically significant.

[16] = test system: MOLT-4; test: CellTiter-Glo cell viability, MOLT-4; assay type: cell-based; details: Homo sapiens; MOLT-4 cells, 72 h with compound
Protocol: as §1, §2
as §3, with “After 24 h, 10 μl of test compounds or control medium are added, and left on the cells for another 72 h. Compounds were serially diluted in DMSO, transferred in cell culture medium, and added to the assay plates. The DMSO concentration was kept constant at <0.2% v/v across the assay plate.” left out, “Elmer). […]” for “Elmer).”

pIC50 [16]	Structure (SMILES)	pIC50 [1]	pIC50 [2]	pIC50 [3]	pIC50 [4]	pIC50 [5]	pIC50 [6]	pIC50 [7]	pIC50 [8]	pIC50 [9]	pIC50 [10]	pIC50 [11]	pIC50 [12]	pIC50 [13]	pIC50 [14]	T/C [15] [%]	TGI [15] [%]	activity in inhibiting A2058 melanoma cell line in vivo [15]	pIC50 ([5]; Homo sapiens, A673)
	COc1ccc2c(=O)c(-c3ccc(CCCCCC[P+](c4ccccc4)(c4ccccc4)c4ccccc4)cc3)coc2c1OC.[Cl-] [SND477]	6.68	6.51	6.62	6.70	6.22	6.80	6.49	6.68	6.26	6.64	6.59	6.96	6.62	6.18	35.6	68.7	significant activity	
	COc1ccc2c(=O)c(-c3ccc(CCCCCCCC[P+](c4ccccc4)(c4ccccc4)c4ccccc4)cc3)coc2c1OC [SND478]	6.66	6.59	6.66	6.72	6.19	6.82	6.41	6.62	6.31	6.68	6.60	6.77	6.57	6.17				
	COc1ccc2c(=O)c(-c3ccc(CCCCCCCCCC[P+](c4ccccc4)(c4ccccc4)c4ccccc4)cc3)coc2c1OC.[Cl-] [SND479]	6.77	6.70	6.72	6.96	6.36	6.96	6.62	6.68	6.68	6.64	6.66	6.77	6.72	6.36	33.5	70.0	significant activity	
6.25	O=c1c(-c2ccc(CCCC[P+](c3ccccc3)(c3ccccc3)c3ccccc3)cc2)coc2c(O)c(O)ccc12 [SND490, (4-(4-(7,8-Dihydroxy-4-oxo-4H-chromen-3-yl)phenyl)butyl)triphenylphosphonium bromide]																		5.71
